Data: patent US4968686A, “Acyclic pyrrolo [2,3-d]pyrimidine analogs as antiviral agents” (The Regents of The University of Michigan, priority 1989, dated 1990)

How the values were obtained:
viruses = conditions: cited from earlier work
HCMV [1] = test: HCMV plaque (focus) reduction assay; type: cell-based; conditions: Human betaherpesvirus 5; Table 1; HFF cells; read-out: 50% Inhibitory Concentration HCMV Plaque
From the text: (§1) The 148 strain of HSV-1 was used in most experiments and was provided by Dr. T. W. Schafer of Schering corporation. The HF strain of HSV-1 was used in selected experiments and was obtained from Dr. G. H. Cohen, University of Pennsylvania. The Towne strain, plaque-purified isolate Po, of HCMV was a gift of Dr. Mark Stinski, University of Iowa.
(§2) HCMV was titered in 24-well cluster dishes which were planted to contain 5×10^4 cells/well, grown as described above. When the cells were 70 to 80% confluent, 0.2 ml of the virus suspension was added per wall and adsorbed as described above. At least three ten-fold dilutions of each preparation were used. Following virus adsorption, the cell sheets were overlayed with 0.5% methocel (4000 CPS) in maintenance medium [MEM(E) with 1.1 gm/liter NaHCO3, 100 units/ml penicillin G, 100 μg/ml streptomycin, and 5% fetal bovine serum]. The cultures were incubated in a humidified atmosphere of 4% CO2 -96% air. Viral foci were visible 5 to 7 days after infection using at least 10-fold magnification. Cells were fixed and stained by a 10-minute exposure to a 0.1% solution of crystal violet in 20% methanol 7 to 12 days after infection. Microscopic foci were enumerated at 20-fold magnification using a Nikon Profile Projector.
(§3) The effect of compounds of the replication of HCMV has been measured using both a plaque (focus) reduction assay and a titer (yield) reduction assay. For the former, HFF cells in 24-well culture dishes were infected with approximately 50 p.f.u. of HCMV per well using the procedures detailed above. Compounds dissolved in growth medium were added in three to six selected concentrations to triplicate wells following virus adsorption. Following incubation at 37° C. for 7 to 10 days, cell sheets were fixed, stained and microscopic foci were enumerated as described above. Drug effects were calculated as a percentage of reduction in number of foci in the presence of each drug concentration compared to the number observed in the absence of drug. DHPG (ganciclovir) was used as a positive control in all experiments.
(§4) Dose-response relationships were used to compare drug effects. These were constructed by linearly regressing the percent inhibition of parameters derived in the preceding sections against log drug concentrations. The 50% inhibitory (I50) concentrations were calculated from the regression lines using the methods described by Goldstein. See Goldstein, A., Biostatistics: An Introductory Text, MacMillan, N.Y., 1964, pp. 156-161. Along with the I50 concentration for visual cytotoxicity, the averaged I50 concentrations are compared to I50 concentrations for inhibition for HCMV or HSV-1 replication. Compounds for which the ratio of cytotoxicity I50 concentrations to antiviral I50 concentrations (in vitro therapeutic index) were greater than 10, were considered for further study.

HCMV [2] = test: HCMV titer (yield) reduction assay; type: cell-based; conditions: Human betaherpesvirus 5; for IC90: Table 1, I90, HFF cells, read-out: HCMV Yield, 90% inhibitory concentration (I90)
From the text: as §1, §2
(§5) For titer reduction analysis, HFF cells were planted as described above in 24-well cluster dishes or in 25 cm^2 flasks. When monolayers were approximately 70% confluent, HCMV was added at a m.o.i. of 0.5 p.f.u. per cell and adsorbed as detailed above. Compounds dissolved in growth medium were added in one or one-half logarithm10 dilutions and incubation continued at 37° C. After 7 to 10 days of incubation, culture dishes or flasks were frozen at […] For titer determination, cells were thawed and then subjected to two more cycles of freezing and thawing at 37° C. Serial, one-logarithm10 dilutions of the final suspension were prepared and inoculated onto new cultures of HFF cells. Titer determination was as detailed above in part (1) (b).
as §4

[3] = Visual cytotoxicity scoring in HFF cells; type: cell-based; conditions: human, Table 1, at time of HCMV plaque enumeration, read-out: 50% Inhibitory Concentration Cytotoxicity HFF (visual)
From the text: (§6) Cytotoxicity produced in HFF and BSC-1 cells was estimated by visual scoring of cells not affected by virus infection in the HCMV and HSV-1 plaque reduction assays. Cytopathology was estimated at 35- and 60-fold magnification and scored on a zero to four plus basis. Wells were scored on the day of staining.
as §4

HCMV [4] = test: HCMV titer, plaque or yield reduction; type: cell-based, human cytomegalovirus (Towne strain) in HFF cells
From the text: as §1, §2, §3, §5, §4

[5] = Growth of KB cells (population doubling times); type: cell-based, human; conditions: human, kb cells; 100 μM; read-out: reduction of KB cell growth rate
Procedure: (§7) Population doubling times and cell viability were measured in uninfected HFF and/or KB cells. Cells were planted in replicate 6-well plastic tissue culture dishes or in 25 cm^2 flasks as described above in part 1. Following an incubation period during which cells attached to the substrate, medium was decanted, the cell sheet rinsed once with HBS, and fresh medium added. The medium consisted of MEM(E) with 1.1 gm NaHCO3 /liter and 10% fetal bovine or calf serum plus appropriate log or half-log concentrations of drug. After additional periods of incubation from 1 to 72 hours at 37° C., cells were harvested by means of 0.05% trypsin plus 0.02% EDTA in a HEPES-buffered salt solution. Cells were enumerated using either a Coulter counter or a hemocytometer and viability determining using trypsan blue dye exclusion.
(§8) In more extensive cytotoxicity testing, the halogenated compounds were tested for effects on the growth of KB cells. Populations doubling times were calculated from the logarithmic portions of growth curves and were as follows: […]

KB cells [6] = test: Growth of KB cells (population doubling times); type: cell-based, human
Procedure: as §7, §8

HSV-1 = HSV-1 plaque reduction assay, strain S148; type: cell-based, herpes simplex virus type 1 (strain S148) in BSC-1 cells; conditions: Human alphaherpesvirus 1; Table 1; strain S148; BSC-1 cells; read-out: 50% Inhibitory Concentration HSV-1 Plaque
From the text: as §1
HSV-1 was titered using monolayer cultures of BSC-1 cells. Cells were planted at 3×10^5 cells/well using 6-well cluster dishes. MEM(E) supplemented with 10% fetal bovine serum was employed as medium. After 22-24 hours, cells were 90% confluent and were inoculated in triplicate using at least three ten-fold dilutions with 0.2 ml of the virus suspension to be assayed and incubated in a humidified 4% CO2 […] atmosphere for one hour to permit viral adsorption. Following virus adsorption, the cell sheet was overlayed with 5 ml of MEM(E) with 5% serum plus 0.5% methocel (4000 CPS) and incubated an additional two to three days. Cells were fixed and stained with 0.1% crystal violet in 20% methanol and macroscopic plaques enumerated.
Plaque reduction experiments were HSV-1 were performed using monolayer cultures of BSC-1 cells. The assay was performed exactly as described above except that the 0.2 ml virus suspension contained approximately 100 p.f.u. of HSV-1. Compounds to be tested were dissolved in the overlay medium at concentrations usually ranging from 0.1 to 100 μM in half-or-one logarithm10 dilutions. Titer reduction assays were performed by planting KB cells in 25 cm^2 plastic tissue culture flasks 10 to 24 hours prior to infection. At the onset of experiments, logarithmically growing replicate monolayer cultures were 60 to 80% confluent and contained 2.5 to 4.5×10^6 cells/flask. Medium was decanted and the cultures were infected with 2 to 10 p.f.u. of HSV-1 per cell. Virus was contained in 1.0 ml of VGM supplemented with 5% fetal bovine serum. After a 1 hour adsorption period at […], the cell sheet was rinsed twice with 2 ml of VGM without serum to remove unadsorbed virus and 5 ml of VGM containing drugs at three to five selected concentrations added in duplicate. Following an 18- to 22-hour incubation at 37° C., infected monolayers were treated with EDTA-trypsin to suspend the cells; aliquots were removed, subjected to three cycles of freezing and thawing, and stored at -76° C. for subsequent virus assay. Virus was titered on BSC-1 cells as described above.
as §4

[7] = Visual cytotoxicity scoring in BSC-1 cells; type: cell-based; conditions: african green monkey, Table 1, at time of HSV-1 plaque enumeration, read-out: 50% Inhibitory Concentration Cytotoxicity BSC (visual)
From the text: as §6, §4

in vitro = type: cell-based, human; conditions: human, kb cells
Procedure: (§9) KB or HFF cells were planted using a Costar Transplate-96 (Costar, Cambridge, Mass.) in Costar 96-well cluster dishes at a concentration of 10,000 to 12,000 cells per well. Wells were suspended in 200 μl of medium [MDM(H) plus 0.7 gm/liter NaCHO3 supplemented with 10% calf serum] per well. After incubation of 16 to 24 hours at 37° C. in a humidified atmosphere of 4% CO2 in air, […] of medium was removed per well. One-hundred μl of medium with or without compounds in twice their final concentrations was added to each well using a Titertek Multichannel Pipette. Final concentrations of compounds ranged from 0.1 to 320 μM. Fifty μl of medium containing radioactive precursors also was added to each well to give a final concentration to 1 to 3 μCi/ml of labeled precursor. [^3 H]Thd was diluted with unlabeled dThd to give a final concentration of 3 or 6 μM.
(§10) Logarithmic cell growth occurred during this time with continual uptake of labeled precursors. At the end of the incubation period, cells were individually harvested from each well using a Skatron Cell harvester (Skatronh, Inc., Sterling, Va.). Cultures for individual wells were harvested onto filter paper and washed free of unincorporated label with nine sequential washes with 5% trichloroacetic acid, nine washes with water, and nine with ethanol using the Skatron unit. Filters were dried, circles from individual cultures were punched from the filter mat and placed into mini-vials. Liquid scintillation solution was added, and radioactivity determined in a Beckman model LS8100 liquid scintillation spectrometer. All samples were counted for 2.0 minutes each, with three rounds of counting. Counts per minute were determined following the application of statistical methods to eliminate count rates which fell outside distribution limits defined by Chauvenet's rejection criterion.
(§11) All analyses were performed in triplicate. That is, three culture wells were used per time point, radioactive precursor, and drug concentration in all experiments. Results from triplicate assays were converted to percent of control and plotted as log dose-response curves from which 50% inhibitor (I50) concentrations were interpolated. Three concentrations of vidarabine were included on all plates as a positive control.
as §4

KB cells [8] = test: cells; type: cell-based, human; conditions: Homo sapiens; [3H]dThd incorporation, KB cells; read-out: I50 on [3H]dThd incorporation
Procedure: as §9, §10, §11, §4

Row | SMILES | antiviral activity previously reported (viruses) | IC50 (HCMV [1]) | IC90 (HCMV [2]) | CC50 [3] | activity against HCMV (in words) (HCMV [4]) | also measured
1 | Nc1ncnc2c1ccn2[C@@H]1O[C@H](CO)[C@@H](O)[C@H]1O [tubercidin] | Broad spectrum antiviral activity | – | – | – | – | –
2 | NC(=O)c1cn([C@@H]2O[C@H](CO)[C@@H](O)[C@H]2O)c2ncnc(N)c12 [sangivamycin] | Broad spectrum antiviral activity | – | – | – | – | –
3 | OCC(CO)OCn1cc(I)c2c(NO)ncnc21 [UMJD 329, 4-hydroxylamino-5-iodo-7-[(1,3-dihydroxy-2-propoxy)methyl]pyrrolo[2,3-d]pyrimidine] | – | 18 µM | 3.2 µM | > 100 µM | active and nearly as potent as the 4-amino analogs | inhibition at 100 µM [5]: > 50%; KB cell growth rate (in words) (KB cells [6]; 10 μM): nearly control rates; effect on KB cell growth (in words) (KB cells [6]; comparison with UMJD 102 / UMJD 183): considerably lesser effects on cell growth
4 | Nc1ncnc2c1c(I)cn2COC(CO)CO [UMJD 330, 4-amino-5-iodo-7-[(1,3-dihydroxy-2-propoxy)methyl]-pyrrolo[2,3-d]pyrimidine] | – | 3.1 µM | 0.9 µM | > 100 µM | – | log reduction at 100 µM (HCMV [2]; FIG. 2, 10-fold higher concentration than UMJD 183 (10 μM)): 5
5 | OCC(CO)OCn1cc(Cl)c2c(NO)ncnc21 [UMJD 328, 4-hydroxylamino-5-chloro-7-[(1,3-dihydroxy-2-propoxy)methyl]pyrrolo[2,3-d]pyrimidine] | – | 56 µM | 24 µM | > 100 µM | active and nearly as potent as the 4-amino analogs | –
6 | N#Cc1cn([C@@H]2O[C@H](CO)[C@@H](O)[C@H]2O)c2ncnc(N)c12 [toyocamycin] | Broad spectrum antiviral activity | – | – | – | – | –
7 | NC(=S)c1cn(COCCO)c2ncnc(N)c12 [UMJD 229, 4-Amino-7-(2-hydroxyethoxymethyl)pyrrolo[2,3-d]pyrimidine-5-thiocarboxamide] | – | 11 µM | 80 µM | 100 µM | active | IC50 (HSV-1): > 100 µM; CC50 [7]: > 100 µM; CC50 (in vitro): > 100 µM; IC50 (KB cells [8]): 10 µM
8 | NC(=S)c1cn(COC(CO)CO)c2ncnc(N)c12 [UMJD 239, 4-Amino-7-[(1,3-dihydroxy-2-propoxy)methyl]pyrrolo[2,3-d]-pyrimidine-5-thiocarboxamide] | – | 8 µM | 25 µM | > 100 µM | – | IC50 (HSV-1): > 100 µM; CC50 [7]: > 100 µM; CC50 (in vitro): > 100 µM; IC50 (KB cells [8]): 28 µM
